Test results as given in US20050256093A1, “Branched polyamine steroid derivatives” (Leo Pharma, priority 2002, published 2005).
Values after ≈ are worked out from the molar mass of the structure shown.

Experiments:
Test in all cases: agar cup assay MIC
Type in all cases: cell-based
[1] = test system: S. aureus CJ200; conditions: Staphylococcus aureus
Text: (§1) In vitro investigations have shown a significant potency of the compounds of the invention against a large number of bacteria including gram-positive and gram-negative strains (Staphyiococci, Streptococci, Corynebacteriae, Mycobacteriae, Proteus, Propionibacterium, Pseudomonas, Neisseriae, E. coli) and fungal strains (Candida and Aspergillus). […] In addition, the studies of post-antibiotic effects point towards a strong bactericidal effect of the compounds of the invention. […] Minimum Inhibitory Concentrations were estimated using an agar cup assay. Bacterial strains were obtained from the American Type Culture Collection or from our own collection of clinical isolates. Colonies from fresh overnight culture were resuspended in saline water to 0.5 MacFarland corresponding to 10^8 CFU/ml. 200 ml Mueller Hinton agar (Oxoid) at 48° C. was inoculated at a concentration of 10^6 CFU/ml and poured into square petri dishes (245×245 mm). Holes were made in the inoculated plates and 200 μl of the compounds to be tested were disposed into each hole. A dilution series of compounds contained six dilution between 0.25 and 125 μg/ml. For Streptococci Mueller Hinton agar was supplemented with 5% sheep blood. Plates were appropriately incubated and zone diameters of growth inhibition were measured using an electronic caliper. MICs were estimated using a linear regression curve between the zone diameter of growth inhibition and the log2 of the sample concentration. The microbiological assay set up is in agreement with the European Pharmacopoeia 3rd edition (1997). The inhibition zones are function of the concentration of the compounds used. Known antibiotics including fusidic acid (FA), mupirocin and linezolid were used as reference compounds.

[2] = test system: S. aureus CJ247; conditions: Staphylococcus aureus
Text: as §1

[3] = test system: Propionibacterium acnes FN33; conditions: Cutibacterium acnes
Text: as §1

[4] = test system: S. aureus CJ234R; conditions: Staphylococcus aureus; S. aureus CJ234R (MRSA, Rifampicin resistant)
Text: as §1

[5] = test system: S. epidermis CK5; conditions: Staphylococcus epidermidis
Text: as §1

[6] = test system: Streptococcus pyogenes EC88; conditions: agar with 5% sheep blood
Text: as §1

[7] = test system: S. aureus CJ234F; conditions: Staphylococcus aureus; S. aureus CJ234F (MRSA, Fus. resistant)
Text: as §1

[8] = test system: E. coli HA165; conditions: Escherichia coli
Text: as §1

[9] = test system: Saccaromyces cervisiae ZZ7; conditions: Saccharomyces cerevisiae
Text: as §1

[10] = test system: Corynebacterium xerosis FF
Text: as §1

[11] = test system: S. aureus N6; conditions: Staphylococcus aureus; S. aureus N6 (Fus. resistant)
Text: as §1

[12] = test system: Candida albicans ZA
Text: as §1

[13] = test system: Pseudomonas aeruginosa BA17
Text: as §1

[14] = test system: Asbergillus niger ZM35; conditions: Aspergillus niger
Text: as §1

[15] = test system: Streptococcus faecium EI19; conditions: Enterococcus faecium; Streptococcus faecium EI19 (Penicillin resistant); agar with 5% sheep blood
Text: as §1

| Compound | MIC [1] [mg/L] | MIC [2] [mg/L] | MIC [3] [mg/L] | MIC [4] [mg/L] | MIC [5] [mg/L] | MIC [6] [mg/L] | MIC [7] [mg/L] | MIC [8] [mg/L] | MIC [9] [mg/L] | MIC [10] [mg/L] | MIC [11] [mg/L] | MIC [12] [mg/L] | MIC [13] [mg/L] | MIC [14] [mg/L] | MIC [15] [mg/L] |
| --- | --- | --- | --- | --- | --- | --- | --- | --- | --- | --- | --- | --- | --- | --- | --- |
| CC(=O)NC[C@H]1CN(c2ccc(N3CCOCC3)c(F)c2)C(=O)O1 [Linezolid, linezolid, reference compound] | 4 (≈ 11.9 µM) | 1 (≈ 2.96 µM) | 1 (≈ 2.96 µM) | 16 (≈ 47.4 µM) | 0.25 (≈ 0.741 µM) | 4 (≈ 11.9 µM) | 1 (≈ 2.96 µM) |  |  |  |  |  |  |  |  |
| C/C(=C\C(=O)OCCCCCCCCC(=O)O)C[C@@H]1OC[C@H](C[C@@H]2O[C@H]2[C@@H](C)[C@H](C)O)[C@@H](O)[C@H]1O [Mupirocin, mupirocin, reference compound] | 1 (≈ 2 µM) | 0.5 (≈ 0.999 µM) |  | 1 (≈ 2 µM) | 0.04 (≈ 0.0799 µM) | 1 (≈ 2 µM) | 0.5 (≈ 0.999 µM) |  |  |  |  |  |  |  |  |
| CC(=O)O[C@H]1C[C@@]2(C)C(CC=C3[C@]2(C)CCC2[C@H](C)[C@H](O)CC[C@]32C)[C@@H]1[C@H](CCCC(C)C)C(=O)NCCN(CCN)CCN (stereo partly drawn) [Compound 106, 21-N-{2′-[bis(2′-aminoethyl)amino]ethyl}-9(11)-en-17R,20S,24,25-tetrahydrofusid-21-amide] |  | 4 (≈ 6.34 µM) | 4 (≈ 6.34 µM) | 4 (≈ 6.34 µM) | 4 (≈ 6.34 µM) | 4 (≈ 6.34 µM) | 4 (≈ 6.34 µM) | 16 (≈ 25.4 µM) | 16 (≈ 25.4 µM) | 4 (≈ 6.34 µM) | 4 (≈ 6.34 µM) | 16 (≈ 25.4 µM) | 16 (≈ 25.4 µM) | 63 (≈ 99.8 µM) | 16 (≈ 25.4 µM) |
| CC(=O)O[C@H]1C[C@@]2(C)C(C[C@@H](O)C3[C@@]4(C)CC[C@@H](O)[C@@H](C)C4CC[C@@]32C)[C@@H]1[C@H](CCCC(C)C)C(=O)NCCN(CCN)CCN (stereo partly drawn) [Compound 101, 21-N-{2′-[bis(2′-aminoethyl)amino]ethyl}-17R,20S,24,25-tetrahydrofusid-21-amide] | 4 (≈ 6.16 µM) | 4 (≈ 6.16 µM) | 4 (≈ 6.16 µM) | 4 (≈ 6.16 µM) | 4 (≈ 6.16 µM) | 16 (≈ 24.7 µM) | 4 (≈ 6.16 µM) | 16 (≈ 24.7 µM) | 4 (≈ 6.16 µM) | 4 (≈ 6.16 µM) | 4 (≈ 6.16 µM) | 16 (≈ 24.7 µM) | 64 (≈ 98.6 µM) | 4 (≈ 6.16 µM) | 16 (≈ 24.7 µM) |
| CC(C)CCCC(C(=O)NCCN(CCN)CCN)C1=C2C[C@@H](O)C3[C@@]4(C)CC[C@@H](O)[C@@H](C)C4CC[C@]3(C)[C@@]2(C)CC1 (stereo partly shown) [Compound 104, 21-N-{2′-[bis(2′-aminoethyl)amino]ethyl}-13(17)-en-17,20,24,25-tetrahydrofusidan-21-carboxamide] | 16 (≈ 27.2 µM) | 16 (≈ 27.2 µM) | 16 (≈ 27.2 µM) | 16 (≈ 27.2 µM) | 16 (≈ 27.2 µM) | 16 (≈ 27.2 µM) | 16 (≈ 27.2 µM) | > 64 | 16 (≈ 27.2 µM) | 16 (≈ 27.2 µM) | 16 (≈ 27.2 µM) | 16 (≈ 27.2 µM) | > 64 | > 64 | > 64 |
| C[C@H](CCC(=O)NCCN(CCN)CCN)[C@H]1CC[C@H]2[C@@H]3CC[C@@H]4C[C@H](O)CC[C@]4(C)[C@H]3[C@H](O)C[C@]12C [Compound 107] | 16 (≈ 30.7 µM) | 16 (≈ 30.7 µM) | 16 (≈ 30.7 µM) | 16 (≈ 30.7 µM) | 16 (≈ 30.7 µM) | 16 (≈ 30.7 µM) | 16 (≈ 30.7 µM) | 16 (≈ 30.7 µM) | 4 (≈ 7.68 µM) | 16 (≈ 30.7 µM) | 16 (≈ 30.7 µM) | 16 (≈ 30.7 µM) | 16 (≈ 30.7 µM) | 16 (≈ 30.7 µM) | 16 (≈ 30.7 µM) |
| CC(=O)O[C@H]1C[C@@]2(C)C(C[C@@H](O)C3[C@@]4(C)CC[C@H](O)[C@@H](C)C4CC[C@@]32C)[C@@H]1[C@H](CCCC(C)C)C(=O)NCCN(CCN)CCN (stereo partly shown) [Compound 105] | 16 (≈ 24.7 µM) | 16 (≈ 24.7 µM) | 16 (≈ 24.7 µM) | 16 (≈ 24.7 µM) | 16 (≈ 24.7 µM) | 64 (≈ 98.6 µM) | 16 (≈ 24.7 µM) | 64 (≈ 98.6 µM) | 64 (≈ 98.6 µM) | 16 (≈ 24.7 µM) | 16 (≈ 24.7 µM) | 16 (≈ 24.7 µM) | 16 (≈ 24.7 µM) | 64 (≈ 98.6 µM) | 64 (≈ 98.6 µM) |
| CC(=O)O[C@H]1C[C@@]2(C)[C@@H](C[C@@H](O)[C@H]3[C@@]4(C)CC[C@@H](O)[C@@H](C)[C@@H]4CC[C@@]32C)/C1=C(\CCC=C(C)C)C(=O)O [FA, fusidic acid, reference compound] | 0.02 (≈ 0.0387 µM) | 0.02 (≈ 0.0387 µM) | 0.2 (≈ 0.387 µM) | 0.02 (≈ 0.0387 µM) | 0.02 (≈ 0.0387 µM) | 16 (≈ 31 µM) | 16 (≈ 31 µM) | > 64 | > 64 | 0.1 (≈ 0.194 µM) | 16 (≈ 31 µM) | > 64 | > 64 | > 64 |  |
| C[C@H](C(=O)NCCCN(CCCN)CCCN)[C@H]1CC[C@H]2[C@@H]3CC=C4C[C@@H](O)CC[C@]4(C)[C@H]3CC[C@]12C [Compound 114, 22-N-{3′-[bis(3′-aminopropyl)amino]propyl}-23,24-bisnor-5-cholenic-22-amide] | 16 (≈ 31 µM) | 16 (≈ 31 µM) | 16 (≈ 31 µM) | 16 (≈ 31 µM) | 16 (≈ 31 µM) | 64 (≈ 124 µM) | 16 (≈ 31 µM) | 16 (≈ 31 µM) | 64 (≈ 124 µM) | 64 (≈ 124 µM) | 16 (≈ 31 µM) | > 125 | > 125 |  |  |
| CC(=O)O[C@H]1C[C@@]2(C)C(CCC3[C@@]4(C)CC[C@@H](OS(=O)(=O)O)[C@@H](C)C4CC[C@@]32C)[C@@H]1[C@H](CCCC(C)C)C(=O)NCCN(CCN)CCN (stereo partly shown) [Compound 111, 21-N-{2′-[bis(2′-aminoethyl)amino]ethyl}-3-OSO3-11-desoxy-17,20,24,25-tetrahydro-fusid-21-amide] | 16 (≈ 22.4 µM) |  | 4 (≈ 5.61 µM) | 16 (≈ 22.4 µM) | 4 (≈ 5.61 µM) | 16 (≈ 22.4 µM) | 16 (≈ 22.4 µM) | 16 (≈ 22.4 µM) | 64 (≈ 89.8 µM) | 16 (≈ 22.4 µM) |  | 125 (≈ 175 µM) | > 125 | 64 (≈ 89.8 µM) |  |
| CC(C)CCCC(C(=O)NCCCN(CCCN)CCCN)[C@H]1CC[C@@]2(C)C1CCC1[C@@]3(C)CC[C@@H](O)[C@@H](C)C3CC[C@@]12C (stereo partly shown) [Compound 117, 21-N-{3′-[bis(3′-aminopropyl)amino]propyl}-1-11-desoxy-16-desacetoxy-17S,20,24,25-tetrahydrofusid-21-amide] | 1 (≈ 1.62 µM) | 1 (≈ 1.62 µM) |  | 1 (≈ 1.62 µM) | 1 (≈ 1.62 µM) |  | 1 (≈ 1.62 µM) |  |  | 0.25 (≈ 0.405 µM) | 1 (≈ 1.62 µM) |  |  |  |  |
| CC(=O)O[C@H]1C[C@@]2(C)C(CCC3[C@@]4(C)CC[C@@H](OS(=O)(=O)O)[C@@H](C)C4CC[C@@]32C)[C@@H]1[C@H](CCCC(C)C)C(=O)NCCCN(CCCN)CCCN (stereo partly shown) [Compound 116] | 4 (≈ 5.3 µM) |  | 16 (≈ 21.2 µM) | 4 (≈ 5.3 µM) | 4 (≈ 5.3 µM) | 16 (≈ 21.2 µM) | 4 (≈ 5.3 µM) | 64 (≈ 84.8 µM) | 16 (≈ 21.2 µM) | 4 (≈ 5.3 µM) |  | 64 (≈ 84.8 µM) | 125 (≈ 166 µM) | 64 (≈ 84.8 µM) |  |
| CC(=O)O[C@H]1C[C@@]2(C)C(C[C@@H](O)C3[C@@]4(C)CC[C@@H](OC(C)=O)[C@@H](C)C4CC[C@@]32C)[C@@H]1[C@H](CCCC(C)C)C(=O)NCCCN(CCCN)CCCN (stereo partly shown) [Compound 115] | 4 (≈ 5.46 µM) |  | 4 (≈ 5.46 µM) | 4 (≈ 5.46 µM) | 4 (≈ 5.46 µM) | 4 (≈ 5.46 µM) |  | 16 (≈ 21.8 µM) | 16 (≈ 21.8 µM) | 64 (≈ 87.3 µM) |  | 16 (≈ 21.8 µM) | 16 (≈ 21.8 µM) | 125 (≈ 171 µM) |  |
| CC(C)CCCC(C(=O)NCCN(CCN)CCN)[C@H]1CC[C@@]2(C)C1CCC1[C@@]3(C)CC[C@@H](O)[C@@H](C)C3CC[C@@]12C (stereo partly shown) [Compound 112, 21-N-{2′-[bis(2′-aminoethyl)amino]ethyl}-11-desoxy-16-desacetoxy-17S,20,24,25-tetrahydrofusid-21-amide] | 1 (≈ 1.74 µM) | 1 (≈ 1.74 µM) |  | 1 (≈ 1.74 µM) | 1 (≈ 1.74 µM) |  | 1 (≈ 1.74 µM) |  |  | 0.25 (≈ 0.435 µM) | 1 (≈ 1.74 µM) |  |  |  |  |
